Laboratory results as given in US10716762B2, “Transmucosal administration system for a pharmaceutical drug” (LTS Lohmann Therapie-Systeme AG, priority 2012, dated 2020).

What was measured:
[1] = First-pass metabolism of idebenone through the liver after oral administration; format: in vivo; conditions: after absorption in the gut
Source text: As a lipophilic compound idebenone is well absorbed in the gastrointestinal tract after conventional oral administration, which is the normal route for administering said compound. Dosage forms such as tablets or capsules have been used in clinical trials and as marketed product. In the course of our investigations on the pharmacological profile of idebenone, we discovered that the compound, after being absorbed in the gut, is metabolized very quickly during its first passage through the liver (“first-pass-effect”). […] Hepatic metabolism of idebenone results in side chain oxidation, reduction of the quinone ring, sulphate and glucuronide conjugation and subsequent renal excretion. The high liver metabolism greatly reduces the potentially high plasma levels of the pharmacologically active idebenone. Because of this strong first pass metabolism, oral administration of idebenone requires high doses of the compound to achieve pharmacologically efficacious plasma levels in the body. Said high doses can result in unwanted side effects such as diarrhea.

[2] = 536 patients, up to 360 mg t.i.d.; Thal et al., Neurology 61 (2003); cited from earlier work
[3] = Pharmacokinetics of idebenone after oromucosal (oral wafer) vs. oral (gavage) administration, three way cross-over study; format: in vivo, female Beagle dogs; conditions: oral administration by gavage vs. oral-mucosal application
Experimental: Plasma levels of idebenone were studied after the administration of two different thin film formulations (oral wafers) administered via the oromucosal route and compared to the profile obtained when idebenone is dosed by the oral route (gavage) in a micro-emulsion. The doses used in this study were 30 mg oromucosal (oral wafer A, suspension type), 15 mg oromucosal (oral wafer B, solid solution type) and 300 mg oral (TPGS/Miglyol microemulsion administered by oral gavage). The study was a three way cross-over study with one week wash-out between administrations. Formulations were administered to female Beagle dogs under fasted conditions. The pharmacokinetic exposure of free (unconjugated) idebenone and its total metabolites (total idebenone, total QS10, total QS6, and total QS4) was determined for each formulation.
Blood samples were collected at several time points over 6 hours after administration. Concentrations of idebenone in plasma were measured by HPLC-MS/MS and pharmacokinetic parameters were calculated.
For this, idebenone was separated and quantified by HPLC-MS/MS: For HPLC, a SYNERGI™ 4μ MAX-RP (50×2 mm) column (Phenomenex. Schlieren, Switzerland) was used. Column temperature: 50° C. […]
Once separated, idebenone was quantified by ESI-MS/MS (API 4000, Perkin-Elmer-Europe BV, Rotkreuz, Switzerland) in positive mode. […]

idebenone metabolized during its first passage through the liver [1]: more than 98%
metabolic spectrum of idebenone [3]: comparable
Compound: COC1=C(OC)C(=O)C(CCCCCCCCCCO)=C(C)C1=O [idebenone, 2,3-dimethoxy-5-methyl-6-(10-hydroxydecyl)-1,4-benzoquinone]
treatment emergent adverse events compared to placebo [2]: no treatment emergent adverse events except some gastrointestinal irritations as well as a slight increase in orthopedic events
